Test systems include Bacillus subtilis DELTA; Candida parapsilosis; Aureobasidium pullulans; Micrococcus luteus; Bacillus megaterium; Escherichia coli; Staphylococcus aureus; Bacillus megaterium Bm11; Serratia marcescens; Enterococcus faecium; Escherichia coli ML-35; Candida albicans; Cryptococcus neoformans; Streptococcus agalactiae.
Common to all, as to assay: ≥ marks a high value that may be exact or a test limit, other limits are often not marked, values filed in µg/mL are converted to µM
In test [1] the test system is Pseudomonas aeruginosa PAO1.
For test [2], the system named is Zymomonas mobilis ATCC 10988.
The subject of test [3] is Escherichia coli DH5alpha.
In test [4] the test system is Staphylococcus aureus MTCC 3160.
Test [5] deals with Escherichia coli MTCC 723.
Test [6] deals with Bacillus subtilis MTCC 2763.
For test [7], the system named is Staphylococcus aureus ATCC BAA-1720.
Test [8] deals with Staphylococcus epidermidis ATCC 51625.
For test [9], the system named is Pseudomonas aeruginosa MTCC 2295.
The test system of test [10] is Staphylococcus aureus ATCC 9144.
Test [11] has as its system Corynebacterium glutamicum ATCC 13032.
Test [12] concerns Candida albicans ATCC 10231.
In test [13] the test system is Escherichia coli ATCC 25922.
Test [14] deals with Bacillus subtilis ATCC 23857.
Test [15] has as its system Pseudomonas aeruginosa ATCC 27853.
Test [16] has as its system Bifidobacterium longum subsp. infantis.
Test [17] has as its system Bacillus subtilis ATCC 6051.
Test [18] has as its system Escherichia coli NEB5alpha.
Test [19] concerns Staphylococcus aureus ATCC 29231.
In test [20] the test system is Klebsiella pneumoniae WGLW2.
Test [21] concerns Acinetobacter baumannii ATCC 7978.
Test [22] has as its system Staphylococcus aureus MW2.
The subject of test [23] is Cryptococcus neoformans ATCC 32264.
The test system of test [24] is Staphylococcus epidermidis ATCC 12228.
In test [25] the test system is Escherichia coli O18:K1:H7 Bort.
Test [26] concerns Salmonella enterica subsp. enterica serovar Typhimurium ATCC 14028.
Test [27] deals with Serratia marcescens ATCC 8100.
For test [28], the system named is Staphylococcus aureus ATCC 25923.

SMILES strings stand for the structures. In brackets after ≈: the same amount, converted by molar mass. Several values for one entry are separate records, joined by “and”; a condition that tells them apart may be missing. Identical values can stand only once.

Broadly, the MIC is the lowest concentration found to suppress growth. A high value points to a need for much substance.

Turning to `CC[C@H](C)[C@H](NC(=O)[C@H](CCCN=C(N)N)NC(=O)[C@H](CCC(N)=O)NC(=O)[C@@H](NC(=O)[C@@H](NC(=O)[C@H](CCCN=C(N)N)NC(=O)[C@H](CCCCN)NC(=O)[C@H](Cc1ccccc1)NC(C)=O)[C@@H](C)CC)C(C)C)C(=O)N[C@@H](CCCCN)C(=O)N[C@@H](CC(=O)O)C(=O)N[C@@H](CC(C)C)C(=O)N[C@@H](CC(C)C)C(=O)N[C@@H](CCCN=C(N)N)C(N)=O` [FKRIVQRIKDLLR], the MIC was 23.7 µM (≈ 41 µg/mL) in test [1]; 23.7 µM (≈ 41 µg/mL) in test [2]; no less than 119 µM in [3]; no less than 119 µM against Bacillus subtilis DELTA; no less than 119 µM with Candida parapsilosis.

On to `NC(=O)[C@H](CCCN=C(N)N)NC(=O)[C@H](Cc1c[nH]c2ccccc12)NC(=O)[C@H](Cc1c[nH]c2ccccc12)NC(=O)[C@H](CCCN=C(N)N)NC(=O)[C@@H](N)Cc1c[nH]c2ccccc12` [WRWWR], for which the MIC in test [4] is 16.9 µM (≈ 15 µg/mL); in [5], no less than 45 µM; in [6], no less than 56.2 µM; in test [7] it was 19.7 µM (≈ 17.5 µg/mL); in test [8] it was 22.5 µM (≈ 20 µg/mL); in [9], no less than 78.7 µM.

Regarding `C[C@H](NC(=O)[C@H](CCCN=C(N)N)NC(=O)[C@H](Cc1c[nH]c2ccccc12)NC(=O)[C@H](Cc1c[nH]c2ccccc12)NC(=O)[C@H](Cc1c[nH]c2ccccc12)NC(=O)[C@@H]1CCCN1C(=O)[C@H](CCCN=C(N)N)NC(=O)[C@H](CCCN=C(N)N)NC(=O)CN)C(=O)N[C@@H](CCCN=C(N)N)C(N)=O` [GRRPWWWRAR], the MIC in test [10] is 5.47 µM (≈ 7.79 µg/mL); in [11], 1.4 µM (≈ 2 µg/mL); in test [12], 21.9 µM (≈ 31.3 µg/mL); with Aureobasidium pullulans, 21.9 µM (≈ 31.3 µg/mL); against Micrococcus luteus, 2.73 µM (≈ 3.9 µg/mL); in test [13], 5.47 µM (≈ 7.79 µg/mL). Also, the MIC in the test on Bacillus megaterium amounted to 0.701 µM (≈ 0.999 µg/mL); in [14], 2.73 µM (≈ 3.9 µg/mL); in test [15] it was 21.9 µM (≈ 31.3 µg/mL).

On to `CC(C)C[C@H](NC(=O)[C@H](CC(=O)O)NC(=O)[C@H](CCCCN)NC(=O)[C@@H](N)Cc1ccccc1)C(=O)NCC(=O)N[C@@H](CCC(=O)O)C(=O)N[C@@H](CCC(=O)O)C(=O)N[C@@H](CC(N)=O)C(=O)N[C@@H](Cc1ccccc1)C(=O)N[C@@H](CCCCN)C(=O)O` [FKDLGEENFK], for which the MIC in [16] was no less than 2450 µM; in the test with Escherichia coli, 2450 µM (≈ 3000 µg/mL); with Staphylococcus aureus it was 2450 µM (≈ 3000 µg/mL).

With `CC[C@H](C)[C@H](NC(=O)[C@H](C)NC(=O)CNC(=O)[C@H](CCCCN)NC(=O)[C@H](CCC(=O)O)NC(=O)[C@H](CCC(=O)O)NC(=O)[C@H](CC(=O)O)NC(=O)[C@H](CCC(=O)O)NC(=O)[C@H](CC(N)=O)NC(=O)[C@H](CCCN=C(N)N)NC(=O)CN)C(=O)N[C@H](C(=O)N[C@@H](CCCCN)C(=O)N[C@H](C(=O)N[C@@H](CCCCN)C(=O)NCC(=O)NCC(=O)N[C@@H](CC(C)C)C(=O)O)C(C)C)C(C)C` [GRNEDEEKGAIVKVKGGL], the MIC in test [17] and in [18] was no less than 1000 µM in each case.

For `CC[C@H](C)[C@H](NC(=O)[C@H](Cc1c[nH]c2ccccc12)NC(=O)[C@H](CCCCN)NC(=O)[C@@H](N)CC(C)C)C(=O)NCC(=O)N[C@@H](CCCCN)C(=O)N[C@@H](CCCCN)C(=O)N[C@H](C(=O)N[C@@H](Cc1c[nH]c2ccccc12)C(=O)N[C@@H](CCCN=C(N)N)C(=O)N[C@H](C(=O)NCC(=O)N[C@@H](Cc1c[nH]c2ccccc12)C(=O)N[C@@H](CC(N)=O)C(=O)N[C@@H](Cc1c[nH]c2ccccc12)C(=O)N[C@@H](CCCN=C(N)N)C(=O)O)C(C)C)[C@@H](C)CC` [LKWIGKKIWRVGWNWR], the MIC was no less than 60.2 µM in test [19]; 60.2 µM (≈ 128 µg/mL) in [12]; no less than 60.2 µM in test [20]; 15.1 µM (≈ 32 µg/mL) in test [21]; 30.1 µM (≈ 64 µg/mL) in test [22].

Molecule `NCCCC[C@H](NC(=O)[C@H](CCCCN)NC(=O)[C@H](Cc1c[nH]c2ccccc12)NC(=O)[C@H](CCCCN)NC(=O)[C@H](CCCN=C(N)N)NC(=O)[C@H](CCCN=C(N)N)NC(=O)[C@H](CCCCN)NC(=O)[C@@H](N)CCCN=C(N)N)C(N)=O` [RKRRKWKK] had an MIC in test [23] of no less than 200 µM.

In the case of `CC[C@H](C)[C@H](NC(=O)[C@H](CCCCN)NC(=O)[C@H](CCCN=C(N)N)NC(=O)CNC(=O)[C@H](CC(C)C)NC(=O)[C@H](CO)NC(=O)[C@H](CCCN=C(N)N)NC(=O)[C@H](CC(C)C)NC(=O)CNC(=O)CN)C(=O)N[C@@H](CC(C)C)C(=O)N[C@@H](CCCN=C(N)N)C(=O)N[C@@H](C)C(=O)N[C@@H](Cc1c[nH]c2ccccc12)C(=O)N[C@@H](CCCCN)C(=O)N[C@@H](CCCCN)C(=O)N[C@@H](Cc1ccc(O)cc1)C(=O)NCC(=O)N1CCC[C@H]1C(=O)N[C@@H](CCC(N)=O)C(=O)N[C@@H](C)C(=O)N[C@H](C(=O)N1CCC[C@H]1C(=O)N[C@@H](C)C(=O)N[C@H](C(=O)N[C@@H](CCCN=C(N)N)C(=O)N[C@@H](CCC(N)=O)C(N)=O)[C@@H](C)O)[C@@H](C)O` [GGLRSLGRKILRAWKKYGPQATPATRQ], the MIC came to 2 µM (≈ 6.02 µg/mL) in the test on Bacillus megaterium Bm11; 4 µM (≈ 12 µg/mL) in the test with Serratia marcescens; 22.6 µM (≈ 68.1 µg/mL) against Enterococcus faecium; 2 µM (≈ 6.02 µg/mL) in test [24]; 0.5 µM (≈ 1.5 µg/mL) against Escherichia coli ML-35; 8 µM (≈ 24.1 µg/mL) in the test on Candida albicans. The MIC was determined as 2 µM (≈ 6.02 µg/mL) in test [25]; 1 µM (≈ 3.01 µg/mL) in [13]; 1 µM (≈ 3.01 µg/mL) in test [26]; 4 µM (≈ 12 µg/mL) in test [27]; 4 µM (≈ 12 µg/mL) in the test on Cryptococcus neoformans; 1.41 µM (≈ 4.26 µg/mL) with Streptococcus agalactiae. The MIC in [28] is 8 µM (≈ 24.1 µg/mL); in the test on Staphylococcus aureus, > 64 µM and 32 µM.

The values above are taken from DBAASP.
